Measured values as given in patent publication US20210163593A1, “TREATMENT OF MONOGENIC DISEASES WITH AN ANTI-CD45RC ANTIBODY” (INSERM (INSTITUT NATIONAL DE LA SANTÉ ET DE LA RECHERCHE …, priority 2017, published 2021).

How the values were obtained:
Format in all cases: in vivo, rat
[1] = system: T CD8^+ CD45RC^high cells; test: Flow cytometry of T cell subsets in muscle and spleen of WT and Dmd^mdx rats after treatment
Description: Muscles of both hind limbs from WT or Dmd^mdx rats were excised and weighed. Muscles were minced and placed in gentle MACS C tubes with collagenase D in the presence of FCS 2%, 1 mM EDTA. Two runs of 30 minutes each in a gentle MACS dissociator were performed with new collagenase added between each run. Cells were suspended in 30 mL of PBS FCS 2%, 1 mM EDTA, were then applied to 15 mL of Hystopaque and centrifuged at 1000 g for 30 minutes without a break. Mononuclear cells were collected from the Hystopaque and PBS interface, washed and suspended in PBS FCS 2%, 1 mM EDTA.
Spleen was harvested, perfused with PBS and digested by collagenase D for 15 minutes at 37° C. Cells were suspended in PBS FCS 2%, 1 mM EDTA and mononuclear cells were recovered as explained above.
Mononuclear cells were stained with antibodies against the following antigens: CD45 (clone OX-1), T-cell receptor (TCR; clone R7/3), CD45RC (clone OX22), CD8 (clone OX8) and CD4 (W3/25), as well as with viability dyes eFluor506 or eFluor450, all from eBiosciences. Analysis was performed on a BD FACS Verse with FACSuite Software version 1.0.6. Post-acquisition analysis was performed with FlowJo software.
(§1) Wild-type (WT) or Dmd^mdx (KO) rats received intraperitoneal injections of a mouse anti-rat CD45RC monoclonal antibody (clone OX22, 2 mg/kg, every 3.5 days) from week 2 of age up to week 12.
(§2) Prednisolone was administered by intraperitoneal injections (0.5 mg/kg, 5 days a week) from week 2 of age up to week 12.

Dmd^mdx rats = test: Grip test of forelimb muscle strength in Dmd^mdx rats; conditions: ip from week 2 of age, tested at 12 weeks
Description: as §1, §2
At week 12 of age treated rats were analyzed for muscle strength using a grip test.
Rats were placed with their forepaws on a grid and were gently pulled backward until they released their grip. A grip meter (Bio-GT3, BIOSEB, France), attached to a force transducer, measured the peak force generated.
To examine whether muscle function was improved by the anti-CD45RC monoclonal antibody treatment, muscle strength was analyzed by a grip test of forelimbs in WT and Dmd^mdx rats at 12 weeks of age after initiation of treatment at 2 weeks of age.

[2] = Weight / animal growth of Dmd^mdx rats during treatment; conditions: ip from week 2 up to week 12 of age
Description: FIG. 6 is a set of two graphs showing the weight of wild-type or Dmd^mdx rats during treatment using prednisolone or anti-CD45RC monoclonal antibody. Control littermate wild-type (WT) or Dmd^mdx (KO) rats received intraperitoneal injections of prednisolone or anti-CD45RC monoclonal antibody (OX22) from week 2 up to week 12 of age and weight was recorded at the indicated time points.
as §1, §2

animal growth (weight) [2]: severe reduction
SMILES: C[C@]12C=CC(=O)C=C1CC[C@@H]1[C@@H]2[C@@H](O)C[C@@]2(C)[C@H]1CC[C@]2(O)C(=O)CO [prednisolone]
T CD8^+ CD45RC^high cells ([1]; ip from week 2 of age, analyzed at 12 weeks, muscle of Dmd^mdx rats and spleen of WT and Dmd^mdx rats): specific decrease | CD4^+CD45RC^high cells ([1]; muscle and spleen of Dmd^mdx rats and spleen of WT rats, data not shown): numerically reduced | CD8^+CD45RC^int/neg cells ([1]; muscle and spleen of Dmd^mdx rats and spleen of WT rats, week 12): maintained | muscle strength (grip test) in treated Dmd^mdx rats compared with WT littermate controls (Dmd^mdx rats): levels identical to those of WT | muscle strength (grip test) in treated vs. untreated Dmd^mdx rats (Dmd^mdx rats): increased
